Marks after values point to notes of the source that are not given here.
How the values were obtained:
[1] = Amount of generated hydroxyl radicals using metal oxides and hydroxides, HPF reagent (Example 15); details: left shaded for 1 hour; 100% = 0.1% titanium oxide irradiated with room light 30 minutes
[2] = Amount of generated hydroxyl radicals under shaded condition or room light, HPF reagent (Example 14); details: measured 1 hour after preparation
[3] = Duration of hydroxyl radical generation, HPF reagent (Example 16); details: shaded, 100% = 0.1% titanium oxide irradiated with room light 30 minutes
[4] = Amount of generated hydroxyl radicals using combinations of calcium hydroxide, magnesium oxide and magnesium hydroxide (Example 17); details: left shaded for 72 hours; total 1% by weight; only calcium hydroxide = 100%
Procedure: Specifically, each reagent was mixed as described below to prepare a specimen to be measured using a suspension of a metal oxide and/or a hydroxide in a manner similar to Example 15. HPF reagent (Daiichi Pure Chemicals Co., Ltd.): 0.1 μL 0.5 M phosphoric acid buffer (pH 7.0): 20 μL Pure water: 49.9 μL Each suspension: 30 μL Table 7 indicates the concentrations and amounts of metal oxide and/or hydroxide in each specimen to be measured. [table]

[5] = Quantification of hydroxyl radical production by HPF fluorescence intensity (Examples 13 and 18); details: HPF 5 μM, room temperature 15 minutes; for Amount of generated radicals: 0.1 M phosphoric acid buffer, fluorescence intensity
spike proteins = spike proteins (Severe acute respiratory syndrome coronavirus, UniProt P59594)
[6] = Shaded, 100% = 0.1% titanium oxide irradiated 30 minutes

| Structure (SMILES) | Amount of generated hydroxyl radicals (% of control) [1] | Amount of generated hydroxyl radicals (% of control) After 1 hour [3] | Amount of generated hydroxyl radicals (% of control) After 12 hours [3] | Amount of generated hydroxyl radicals % of activity in Ca(OH)2 [4] | Amount of generated radicals [5] | other results |
| --- | --- | --- | --- | --- | --- | --- |
| [K+].[OH-] [Potassium hydroxide (1%), potassium hydroxide] | 2.88 % of control |  |  |  |  |  |
| [Mg+2].[OH-].[OH-] [Magnesium hydroxide (1%), magnesium hydroxide] | 26.17 % of control | 26.17 % of control | 62.18 % of control | 144.14 % of activity in Ca(OH)2 | 11907 | Amount of generated hydroxyl radicals [2, 6]: 28.33% |
| [O]=[Ti]=[O] [0.1% titanium oxide, titanium oxide] |  |  |  |  |  | Amount of generated hydroxyl radicals ([2]; Irradiated with room light for 30 minutes then shaded, this value assumed to be 100%): 100^1) %; Amount of generated hydroxyl radicals [2, 6]: 3.92% |
| [Mg+2].[OH-].[OH-] [specimen No. 7, magnesium hydroxide] |  |  |  |  |  | amounts of generated radicals (rank order) ([5]; comparison of specimens Nos. 7, 8 and 3): specimen No. 7>specimen No. 8>specimen No. 3 |
| [Ca+2].[OH-].[OH-] [Calcium hydroxide (1%), calcium hydroxide] | 14.27 % of control | 14.27 % of control | 47.49 % of control | 100.00 % of activity in Ca(OH)2 | 6236 |  |
| [O]=[Mg] [Magnesium oxide (1%), magnesium oxide, reference compound] | 15.07 % of control | 15.07 % of control | 34.15 % of control | 77.84 % of activity in Ca(OH)2 | 3918 |  |
| [Na+].[OH-] [Sodium hydroxide (1%), sodium hydroxide] | 3.29 % of control |  |  |  |  |  |
| O=C([O-])c1ccccc1O.[Na+] [sodium salicylate] |  |  |  |  |  | bands corresponding to spike proteins, electrophoresis without a reducing agent (spike proteins): recovery of bands corresponding to spike proteins was confirmed |

— US20100329971A1, “NOVEL HYDROXY RADICAL GENERATION METHOD, AND ANTI-VIRAL MATERIAL UTILIZING HYDROXYL RADICAL GENERATED BY THE METHOD” (MOCHIGASE CO., LTD., priority 2008, published 2010)
